Legend:
Assay in all cases: Test B pre-/postemergence plant response
Format in all cases: in vivo
[1] = test system: velvetleaf (Abutilon theophrasti); conditions: for Velvetleaf plant response rating (0 to 100 scale): 62 g ai/ha, postemergence, 0 is no effect, 100 is complete control; for Plant response rating, Velvetleaf: Postemergence
Summary of the method: (§1)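 Response scores were assigned visually after 13 to 15 days in a greenhouse, comparing treated pots with controls on a 0–100 scale where 100 denotes complete control. Preemergence treatments went onto freshly seeded loam/sand soil; postemergence treatments onto plants 2 to 18 cm tall.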

[2] = test system: yellow nutsedge (Cyperus esculentus); conditions: for Nutsedge, Yellow plant response rating (0 to 100 scale): 62 g ai/ha, postemergence, 0 is no effect, 100 is complete control; for Plant response rating, Nutsedge, Yellow: Postemergence
Summary of the method: as §1

[3] = test system: Italian ryegrass (Lolium multiflorum); conditions: for Ryegrass, Italian plant response rating (0 to 100 scale): 62 g ai/ha, postemergence, 0 is no effect, 100 is complete control; for Plant response rating, Ryegrass, Italian: Postemergence
Summary of the method: as §1

[4] = test system: goosegrass (Eleusine indica); conditions: for Goosegrass plant response rating (0 to 100 scale): 62 g ai/ha, postemergence, 0 is no effect, 100 is complete control; for Plant response rating, Goosegrass: Postemergence
Summary of the method: as §1

[5] = test system: woolly cupgrass (Eriochloa villosa); conditions: for Cupgrass, Woolly plant response rating (0 to 100 scale): 62 g ai/ha, postemergence, 0 is no effect, 100 is complete control; for Plant response rating, Cupgrass, Woolly: Postemergence
Summary of the method: as §1

[6] = test system: downy bromegrass (Bromus tectorum); conditions: for Bromegrass, Downy plant response rating (0 to 100 scale): 62 g ai/ha, postemergence, 0 is no effect, 100 is complete control; for Plant response rating, Bromegrass, Downy: Postemergence
Summary of the method: as §1

[7] = test system: pigweed (Amaranthus retroflexus); conditions: for Pigweed plant response rating (0 to 100 scale): 62 g ai/ha, postemergence, 0 is no effect, 100 is complete control; for Plant response rating, Pigweed: Postemergence
Summary of the method: as §1

[8] = test system: ragweed (common ragweed, Ambrosia elatior); conditions: for Ragweed plant response rating (0 to 100 scale): 62 g ai/ha, postemergence, 0 is no effect, 100 is complete control; for Plant response rating, Ragweed: Postemergence
Summary of the method: as §1

[9] = test system: wheat (Triticum aestivum); conditions: for Wheat plant response rating (0 to 100 scale): 62 g ai/ha, postemergence, 0 is no effect, 100 is complete control; for Plant response rating, Wheat: Postemergence
Summary of the method: as §1

[10] = test system: green foxtail (Setaria viridis); conditions: for Foxtail, Green plant response rating (0 to 100 scale): 62 g ai/ha, postemergence, 0 is no effect, 100 is complete control; for Plant response rating, Foxtail, Green: Postemergence
Summary of the method: as §1

[11] = test system: Surinam grass (Brachiaria decumbens); conditions: for Surinam Grass plant response rating (0 to 100 scale): 62 g ai/ha, postemergence, 0 is no effect, 100 is complete control; for Plant response rating, Surinam Grass: Postemergence
Summary of the method: as §1

[12] = test system: large crabgrass (Digitaria sanguinalis); conditions: for Crabgrass, Large plant response rating (0 to 100 scale): 62 g ai/ha, postemergence, 0 is no effect, 100 is complete control; for Plant response rating, Crabgrass, Large: Postemergence
Summary of the method: as §1

[13] = test system: lambsquarters (Chenopodium album); conditions: for Lambsquarters plant response rating (0 to 100 scale): 62 g ai/ha, postemergence, 0 is no effect, 100 is complete control; for Plant response rating, Lambsquarters: Postemergence
Summary of the method: as §1

[14] = 31 g ai/ha, 0 to 100 scale (0 no effect, 100 complete control)
[15] = 125 g ai/ha, scale 0 to 100 (0 no effect, 100 complete control)
[16] = 250 g ai/ha, scale 0 to 100 (0 no effect, 100 complete control), 13 to 15 days

CCCn1c(-c2cccc(Br)c2)ncc(C(=O)C2=C(O)CCCC2=O)c1=O [Compound 141]
Velvetleaf plant response rating (0 to 100 scale) ([1]; 13 to 15 days): 95 | Plant response rating, Velvetleaf [1, 14]: 75 | Plant response rating, Velvetleaf [1, 15]: 98 | Plant response rating, Velvetleaf [1, 16]: 98 | Nutsedge, Yellow plant response rating (0 to 100 scale) ([2]; 13 to 15 days): 10 | Plant response rating, Nutsedge, Yellow [2, 14]: 0 | Plant response rating, Nutsedge, Yellow [2, 15]: 60 | Plant response rating, Nutsedge, Yellow [2, 16]: 60 | Ryegrass, Italian plant response rating (0 to 100 scale) ([3]; 13 to 15 days): 0 | Plant response rating, Ryegrass, Italian [3, 14]: 0 | Plant response rating, Ryegrass, Italian [3, 15]: 0 | Plant response rating, Ryegrass, Italian [3, 16]: 5 | Goosegrass plant response rating (0 to 100 scale) ([4]; 13 to 15 days): 75 | Plant response rating, Goosegrass [4, 14]: 65 | Plant response rating, Goosegrass [4, 15]: 75 | Plant response rating, Goosegrass [4, 16]: 80 | Cupgrass, Woolly plant response rating (0 to 100 scale) ([5]; 13 to 15 days): 65 | Plant response rating, Cupgrass, Woolly [5, 14]: 65 | Plant response rating, Cupgrass, Woolly [5, 15]: 65 | Plant response rating, Cupgrass, Woolly [5, 16]: 70 | Bromegrass, Downy plant response rating (0 to 100 scale) ([6]; 13 to 15 days): 5 | Plant response rating, Bromegrass, Downy [6, 14]: 0 | Plant response rating, Bromegrass, Downy [6, 15]: 10 | Plant response rating, Bromegrass, Downy [6, 16]: 45 | Pigweed plant response rating (0 to 100 scale) ([7]; 13 to 15 days): 75 | Plant response rating, Pigweed [7, 14]: 60 | Plant response rating, Pigweed [7, 15]: 95 | Plant response rating, Pigweed [7, 16]: 98 | Ragweed plant response rating (0 to 100 scale) ([8]; 13 to 15 days): 75 | Plant response rating, Ragweed [8, 14]: 65 | Plant response rating, Ragweed [8, 15]: 85 | Plant response rating, Ragweed [8, 16]: 95 | Wheat plant response rating (0 to 100 scale) ([9]; 13 to 15 days): 5 | Plant response rating, Wheat [9, 14]: 0 | Plant response rating, Wheat [9, 15]: 5 | Plant response rating, Wheat [9, 16]: 10 | Foxtail, Green plant response rating (0 to 100 scale) ([10]; 13 to 15 days): 75 | Plant response rating, Foxtail, Green [10, 14]: 50 | Plant response rating, Foxtail, Green [10, 15]: 90 | Plant response rating, Foxtail, Green [10, 16]: 90 | Surinam Grass plant response rating (0 to 100 scale) ([11]; 13 to 15 days): 65 | Plant response rating, Surinam Grass [11, 14]: 40 | Plant response rating, Surinam Grass [11, 15]: 70 | Plant response rating, Surinam Grass [11, 16]: 75 | Crabgrass, Large plant response rating (0 to 100 scale) ([12]; 13 to 15 days): 75 | Plant response rating, Crabgrass, Large [12, 14]: 70 | Plant response rating, Crabgrass, Large [12, 15]: 80 | Plant response rating, Crabgrass, Large [12, 16]: 85 | Lambsquarters plant response rating (0 to 100 scale) ([13]; 13 to 15 days): 80 | Plant response rating, Lambsquarters [13, 14]: 80 | Plant response rating, Lambsquarters [13, 15]: 98 | Plant response rating, Lambsquarters [13, 16]: 100

CCCCn1c(-c2cccc(Cl)c2)ncc(C(=O)C2=C(O)CCCC2=O)c1=O [Compound 146]
Velvetleaf plant response rating (0 to 100 scale) ([1]; 13 to 15 days): 85 | Plant response rating, Velvetleaf [1, 14]: 80 | Plant response rating, Velvetleaf [1, 15]: 98 | Plant response rating, Velvetleaf [1, 16]: 100 | Nutsedge, Yellow plant response rating (0 to 100 scale) ([2]; 13 to 15 days): 10 | Plant response rating, Nutsedge, Yellow [2, 14]: 5 | Plant response rating, Nutsedge, Yellow [2, 15]: 20 | Plant response rating, Nutsedge, Yellow [2, 16]: 40 | Ryegrass, Italian plant response rating (0 to 100 scale) ([3]; 13 to 15 days): 5 | Plant response rating, Ryegrass, Italian [3, 14]: 5 | Plant response rating, Ryegrass, Italian [3, 15]: 10 | Plant response rating, Ryegrass, Italian [3, 16]: 15 | Goosegrass plant response rating (0 to 100 scale) ([4]; 13 to 15 days): 90 | Plant response rating, Goosegrass [4, 14]: 75 | Plant response rating, Goosegrass [4, 15]: 95 | Plant response rating, Goosegrass [4, 16]: 95 | Cupgrass, Woolly plant response rating (0 to 100 scale) ([5]; 13 to 15 days): 65 | Plant response rating, Cupgrass, Woolly [5, 14]: 60 | Plant response rating, Cupgrass, Woolly [5, 15]: 65 | Plant response rating, Cupgrass, Woolly [5, 16]: 75 | Bromegrass, Downy plant response rating (0 to 100 scale) ([6]; 13 to 15 days): 5 | Plant response rating, Bromegrass, Downy [6, 14]: 0 | Plant response rating, Bromegrass, Downy [6, 15]: 10 | Plant response rating, Bromegrass, Downy [6, 16]: 35 | Pigweed plant response rating (0 to 100 scale) ([7]; 13 to 15 days): 98 | Plant response rating, Pigweed [7, 14]: 95 | Plant response rating, Pigweed [7, 15]: 100 | Plant response rating, Pigweed [7, 16]: 100 | Ragweed plant response rating (0 to 100 scale) ([8]; 13 to 15 days): 80 | Plant response rating, Ragweed [8, 14]: 65 | Plant response rating, Ragweed [8, 15]: 98 | Plant response rating, Ragweed [8, 16]: 98 | Wheat plant response rating (0 to 100 scale) ([9]; 13 to 15 days): 0 | Plant response rating, Wheat [9, 14]: 0 | Plant response rating, Wheat [9, 15]: 15 | Plant response rating, Wheat [9, 16]: 45 | Foxtail, Green plant response rating (0 to 100 scale) ([10]; 13 to 15 days): 55 | Plant response rating, Foxtail, Green [10, 14]: 50 | Plant response rating, Foxtail, Green [10, 15]: 80 | Plant response rating, Foxtail, Green [10, 16]: 90 | Surinam Grass plant response rating (0 to 100 scale) ([11]; 13 to 15 days): 65 | Plant response rating, Surinam Grass [11, 14]: 65 | Plant response rating, Surinam Grass [11, 15]: 75 | Plant response rating, Surinam Grass [11, 16]: 75 | Crabgrass, Large plant response rating (0 to 100 scale) ([12]; 13 to 15 days): 75 | Plant response rating, Crabgrass, Large [12, 14]: 65 | Plant response rating, Crabgrass, Large [12, 15]: 85 | Plant response rating, Crabgrass, Large [12, 16]: 98 | Lambsquarters plant response rating (0 to 100 scale) ([13]; 13 to 15 days): 98 | Plant response rating, Lambsquarters [13, 14]: 95 | Plant response rating, Lambsquarters [13, 15]: 100 | Plant response rating, Lambsquarters [13, 16]: 100
